Results taken from patent publication US10828301B2, “2,4-pyrimidinediamine compounds and their uses” (Rigel Pharmaceuticals, Inc, priority 2002, dated 2020).
Where a name gives a salt, the structure may show the parent alone. Read-outs that look alike come from different tables or passages of the source.

Experiments:
Type in all cases: cell-based
B-cell line BJAB = test: BJAB (B-cell) toxicity, light scatter; conditions: Homo sapiens; BJAB B-cells, flow cytometric light scatter; read-out: Toxicity BJAB Light Scat.
Method: The B-cell line BJAB was cultured in log phase in RPMI1640+10% heat-inactivated fetal bovine serum, lx L-glutamine, lx penicillin, lx […] and 1× beta-mercaptoethanol at 37° C., 5% CO2. First, BJABs were harvested, spun and resuspended in culture medium to a concentration of 7.7×10^5 cells/mL. 65 uL cells were mixed with 65 uL compound, in duplicate and in the presence of 0.1% DMSO in a V-bottomed 96-well tissue culture plate. Cells were incubated with compound at various dilutions at 37° C., 5% CO2. Toxicity was assessed by flow cytometric analysis of cellular light scatter.

Jurkat cells = test: Jurkat (T-cell) toxicity, light scatter; conditions: Homo sapiens, 18-24 hr, flow cytometric light scatter, read-out: Toxicity Jurkat Light Scat.
Method: Dilute Jurkat cells to 2×10^5 cells/ml in complete RPMI (10% heat-inactivated fetal bovine serum) media and incubate at 37° C., 5% CO2 for 18 hours. Add 65 ul cells at 7.7×10^5 cells/ml to a 96-well V-bottom plate (TC-treated, Costar) containing 65 ul 2× compound (final vehicle concentration is 0.5% DMSO, 1.5% MeOH). Mix, incubate plates for 18-24 hr at 37° C., 5% CO2. Toxicity was assessed by flow cytometric analysis of cellular light scatter

[1] = system: bone marrow derived mast cells (BMMC); test: BMMC high cell density IgE activation: degranulation (hexosiminidase, histamine), leukotriene (LTC4) and cytokine (TNFalpha, IL-6) assays; conditions: Mus musculus, anti-IgE activation, hexosaminidase release, read-out: BMMC anti-IgE hexos IC50
Method: After sensitizing, cells are counted, pelleted (1000 rpm, 5-10 minutes), and resuspended at 1-3×10^6 cells/ml in MT buffer. Add 100 ul of cell suspension to each well and 100 ul of compound dilutions. The final vehicle concentration is 0.5% DMSO. Incubate at 37° C. (5% CO2) for 1 hour. After 1 hour of compound treatment, stimulate cells with 6× stimulus (60 ng/ml DNP-BSA). Mix wells with the cells and allow plates to incubate at 37° C. (5% CO2) for one hour. After 1 hour incubation, pellet cells (10 minutes, 1000 RPM) and collect 200 ul per well of the supernatant, being careful not to disturb pellet, and transfer to a clean tube or 96-well plate. Place the supernatant plate on ice. During the 4-5 hour step (see next) perform the hexosiminidase assay. Resuspend cell pellet in 240 ul WEI-conditioned media containing 0.5% DMSO and corresponding concentration of compound. Incubate BMMC cells for 4-5 hours at 37° C. (5% CO2). After incubation, pellet cells (1000 RPM, 10 minutes) and collect 225 ul per well and place in −80° C. until ready to perform ELISAS. ELISAS are performed on appropriately diluted samples (determined empirically for each donor cell population so that the sample measurement falls within the standard curve) following the supplier's instructions.
Add 50 uL of BMMC cell supernatant (see above) to the hexoseaminidase substrate, place at 37° C. for 30 minutes and read the plate at 5, 10, 15, and 30 minutes on a spectrophotometer.

[2] = system: basophils in whole human peripheral blood; test: Basophil ionomycin activation: histamine release assay
Method: Assays for ionomycin-induced basophil cell degranulation were carried out as described for the Basophil IgE or Dustmite Activation Assay (Section 6.4.6, supra), with the exception that following incubation with compound, cells were stimulated with 20 μl of 2 μM ionomycin.

[3] = system: basophils in whole human peripheral blood; test: Basophil IgE activation: histamine release assay; conditions: anti-IgE activation
Method: The basophil activation assay was carried out using whole human peripheral blood from donors allergic to dust mites with the majority of the red blood cells removed by dextran sedimentation. Human peripheral blood was mixed 1:1 with 3% dextran T500 and RBCs were allowed to settle for 20-25 min. The upper fraction was diluted with 3 volumes of D-PBS and cells were spun down for 10 min at 1500 rpm, RT. Supernatant was aspirated and cells were washed in an equal volume MT-buffer. Finally, cells were resuspended in MT-buffer containing 0.5% DMSO in the original blood volume. 80 uL cells were mixed with 20 uL compound in the presence of 0.5% DMSO, in triplicate, in a V-bottom 96-well tissue culture plate. A dose range of 8 compound concentrations was tested resulting in a 10-point dose response curve including maximum (stimulated) and minimum (unstimulated) response. […] The cells were stimulated for 30 minutes at 37° C., 5% CO2. The plate was spun for 10 min at 1500 rpm at room temperature and 80 uL the supernatant was harvested for histamine content analysis using the histamine ELISA kit supplied by Immunotech. The ELISA was performed according to supplier's instructions.

[4] = system: ionophore-induced degranulation of mast and/or basophil cells; test: Ionophore (ionomycin or A23187)-induced degranulation counter screen; conditions: high density BMMC, ionomycin activation, hexosaminidase release, read-out: BMMC Ionomycin Hexos. IC50
Description: In addition to the FcεRI or FcγRI degranulation pathways discussed above, degranulation of mast and/or basophil cells can be induced by other agents. For example, ionomycin, a calcium ionophore that bypasses the early FcεRI or FcγRI signal transduction machinery of the cell, directly induces a calcium flux that triggers degranulation. Referring again to FIG. 2, activated PLCγ initiates pathways that lead to, among other things, calcium ion mobilization and subsequent degranulation. As illustrated, this Ca^2+ mobilization is triggered late in the FcεRI signal transduction pathway. […] Other ionophores that induce degranulation in this manner include A23187. The ability of granulation-inducing ionophores such as ionomycin to bypass the early stages of the FcεRI and/or FcγRI signaling cascades may be used as a counter screen to identify active compounds of the invention that specifically exert their degranulation-inhibitory activity by blocking or inhibiting the early FcεRI or FcγRI signaling cascades, as discussed above.
Assays suitable for determining the IC50 of ionophore-induced degranulation include any of the previously-described degranulation assays, with the modification that the cells are stimulated or activated with a degranulation-inducing calcium ionophore such as ionomycin or A23187 (A.G. Scientific, San Diego, Calif.) instead of anti-IgE antibodies or an IgE-specific allergen. Specific assays for assessing the ability of a particular 2,4-pyrimidinediamine compound of the invention to inhibit ionophore-induced degranulation are provided in the Examples section.

[5] = system: cultured human mast cells (CHMC); test: CHMC low cell density ionomycin activation: tryptase assay; conditions: Homo sapiens, Mast cell, Low Density CHMC, ionomycin activation
[6] = system: cultured human mast cells (CHMC); test: CHMC low cell density IgE activation: tryptase and LTC4 assays; conditions: Homo sapiens, Mast cell, Low Density CHMC, anti-IgE activation
Method in brief: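 Degranulation measured after 30 min anti-IgE challenge at 37° C of CHMC plated at 1000-1500 cells/well following 1 h preincubation. Readouts: LTC4 by ELISA on donor-specific diluted supernatants, and tryptase activity from a 30 min room-temperature substrate reaction.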

[7] = hexosaminidase readout, read-out: CHMC Ionomycin Hexos.
[8] = hexosaminidase readout, read-out: CHMC anti-IgE Hexos.
[9] = tryptase readout, read-out: CHMC Ionomycin Tryptase
[10] = tryptase readout, read-out: CHMC anti-IgE Tryptase

Compound	IC50 [1] [µM]	IC50 ([2]; Homo sapiens) [µM]	IC50 ([3]; Homo sapiens) [µM]	IC50 ([4]; Mus musculus) [µM]	also measured
Cc1cccc(Nc2ncc(F)c(Nc3cccc(C)c3)n2)c1 [Compound R092788, N2,N4-bis(3-methylphenyl)-5-fluoro-2,4-pyrimidinediamine]					IC50 (B-cell line BJAB): > 10 µM; IC50 (Jurkat cells): > 10 µM
Fc1cnc(Nc2ccc(C(F)(F)F)cc2)nc1Nc1ccc(C(F)(F)F)cc1 [Compound R926016, N2,N4-Bis(4-trifluoromethylphenyl)-5-fluoro-2,4-pyrimidinediamine]	> 10	> 10	> 10	> 10	
Fc1cc(Nc2ncc(F)c(Nc3ccc(C(F)(F)F)c(F)c3)n2)ccc1C(F)(F)F [Compound R926018, N2,N4-Bis(3-fluoro-4-trifluoromethylphenyl)-5-fluoro-2,4-pyrimidinediamine]	8.5	10	> 10	> 10	
Fc1cnc(Nc2ccc3c(c2)OC(F)(F)C(F)(F)O3)nc1Nc1ccc2c(c1)OC(F)(F)C(F)(F)O2 [Compound R926037, N2,N4-Bis(3,4-tetrafluoroethylendioxyphenyl)-5-fluoro-2,4-pyrimidinediamine]					IC50 [2]: > 10 µM; IC50 [3]: > 10 µM; IC50 [4]: > 10 µM
Fc1cnc(Nc2ccc(Cl)c(C(F)(F)F)c2)nc1Nc1ccc(Cl)c(C(F)(F)F)c1 [Compound R926039, N2,N4-Bis(4-chloro-3-trifluoromethylphenyl)-5-fluoro-2,4-pyrimidinediamine]	> 10	> 10	> 10	> 10	
CCOc1ccc(Nc2ncc(F)c(Nc3ccc4c(c3)OCCO4)n2)cc1 [Compound R926211, N2-(4-Ethoxyphenyl)-N4-(3,4-ethylenedioxyphenyl)-5-fluoro-2,4-pyrimidinediamine]	3.9	> 10	1.55	> 10	IC50 [5, 7]: > 10 µM; IC50 [5, 9]: 9.8 µM; IC50 [6, 8]: 2.7 µM; IC50 [6, 10]: 1.3 µM
O=C(c1cc2cc(Nc3ncc(F)c(Nc4ccc5c(c4)OCCO5)n3)ccc2o1)N1CCNCC1 [Compound R926501, N4-(3,4-Ethylenedioxyphenyl)-5-fluoro-N2-[2-(N-piperazino)carbonylbenzofuran-5-yl]-2,4-pyrimidinediamine Hydrogen Chloride Salt]					IC50 [2]: > 10 µM
O=C(c1cc2cc(Nc3ncc(F)c(Nc4cccc(O)c4)n3)ccc2o1)N1CCNCC1 [Compound R926502, 5-Fluoro-N4-(3-hydroxyphenyl)-N2-[2-(N-piperazino)carbonylbenzofuran-5-yl]-2,4-pyrimidinediamine Hydrogen Chloride Salt]					IC50 [2]: > 10 µM

Second part, led by results:

IC50 [1] [µM]	IC50 ([2]; Homo sapiens) [µM]	IC50 ([3]; Homo sapiens) [µM]	Compound	IC50 ([4]; Mus musculus) [µM]	also measured
1.4	> 10	0.53	COc1ccc(Nc2ncc(F)c(Nc3ccc(OC)cc3)n2)cc1 [Compound R926017, N2,N4-Bis(4-methoxyphenyl)-5-fluoro-2,4-pyrimidinediamine]	9.6	IC50 [5, 7]: > 10 µM; IC50 [6, 8]: 1.43 µM
> 10	> 10	> 10	Fc1cnc(Nc2cccc(OC(F)(F)F)c2)nc1Nc1cccc(OC(F)(F)F)c1 [Compound R926038, N2,N4-Bis(3-trifluoromethoxyphenyl)-5-fluoro-2,4-pyrimidinediamine]	> 10	
> 10	> 10	> 10	CCOc1ccc(Nc2cc(C(=O)OC)nc(Nc3ccc(OCC)cc3)n2)cc1 [Compound R926058, N2,N4-Bis(4-ethoxyphenyl)-6-methoxycarbonyl-2,4-pyrimidinediamine]	> 10	
2.8	> 10	2.5	CN(C)c1ccc(Nc2ncc(F)c(Nc3ccc(N(C)C)cc3)n2)cc1 [Compound R926086, N2,N4-Bis[4-(N,N-dimethylamino)phenyl]-5-fluoro-2,4-pyrimidinediamine]	7.3	
6.6	> 10	> 10	Fc1cnc(Nc2ccc(Cl)cc2)nc1Nc1ccc(Cl)cc1 [Compound R926206, N2,N4-Bis(4-chlorophenyl)-5-fluoro-2,4-pyrimidinediamine]	8.6	
10	> 10	> 10	Fc1cnc(Nc2cccc(Cl)c2)nc1Nc1cccc(Cl)c1 [Compound R926209, N2,N4-Bis(3-chlorophenyl)-5-fluoro-2,4-pyrimidinediamine]	9.1	
0.5	> 10	0.5	COc1ccc(Nc2ncc(F)c(Nc3ccc4c(c3)OCCO4)n2)cc1OC [Compound R926212, N2-(3,4-Dimethoxyphenyl)-N4-(3,4-ethylenedioxyphenyl)-5-fluoro-2,4-pyrimidinediamine]	5	IC50 [5, 9]: > 10 µM; IC50 ([6]; LTC4 readout, read-out: CHMC anti-IgE LTC4): 0.45 µM; IC50 [6, 10]: 0.654 µM
	> 10	1.75	CCOc1ccc(Nc2nc(Nc3ccc4c(c3)OCCO4)ncc2F)cc1 [Compound R926213, N4-(4-Ethoxyphenyl)-N2-(3,4-ethylenedioxyphenyl)-5-fluoro-2,4-pyrimidinediamine]		IC50 [5, 9]: 5.5 µM; IC50 [6, 10]: 1.64 µM
